Reference: patent US9801839B2, “Therapeutic method” (Macfarlane Burnet Institute for Medical Research and Public …, priority 2014, dated 2017)
“Also recorded” adds a separate entry of the source. Counter-ions that a name gives are not always drawn.

Experiments:
Ect cells [1] = assay: Cytokine release in transwells (FlowCytomix bead assay); assay type: cell-based, human; settings: for IL-6 secretion induced by TLR3 agonist PIC / IL-8 secretion induced by TLR3 agonist PIC / IL-1RA production: 0.3% acid pH 3.9 or media acidified to pH 3.9 with HCl; for IL-1RA production: absence or presence of PIC
Description: (§1) Cytokines were measured using FlowCytomix assays, utilising the basic reagents kit, in conjunction with simplex kits for IL-6, IL-8 and IL-1RA (eBiosciences).
(§2) Test Procedure • 1. Calculate required volumes of reagents and make standards, bead mixtures and biotin-conjugate as described above. • 2. Add 15 μL of either standard, sample or blank (1× assay buffer) to appropriately labelled tubes. • 3. Add 15 μL of prepared bead mixture to each tube. • 4. Add 30 μL of biotin-conjugate mix to each tube, mix tubes well and incubate at room temp for 2 hours. Protect samples from light with foil. • 5. Prepare Streptavidin-PE mix. • 6. Add 0.6 ml 1× assay buffer to each tube and centrifuge at 200 g for 5 min. • 7. Discard s/n, leaving approx. 100 μL. Repeat for a total of 2 washes. • 8. Add 30 μL of Streptavidin-PE mix to all tubes, mix well and incubate at room temp for 1 hour (protected from light). • 9. Add 0.6 ml 1× assay buffer to each tube and centrifuge at 200 g for 5 min. • 10. Discard s/n, leaving approx. 100 μL. Repeat for a total of 2 washes. • 11. Discard s/n from final wash, leaving 100-200 μL of buffer. Analyse samples on the flow cytometer within 24 hours (preferable the same day as the experiment).
(§3) The following concentrations of TLR agonists (Table 3.) have been used to activate FGT cells either alone of added with LA-containing media for 18-24 hours.

[2] = system: vaginal (VK2) epithelial cells
[3] = system: endocervical (End) epithelial cells
[4] = system: ectocervical (Ect) epithelial cells
[5] = system: epithelial cells from the lower female reproductive tract; assay: Cytotoxicity in a standard plate format; assay type: cell-based, human; settings: 0.4% L-lactic acid, standard plate format (data not shown)
End cells = assay: Cytokine release in transwells (FlowCytomix bead assay); assay type: cell-based, human
Description: (§4) An analysis was performed to determine if physiologic noncytotoxic concentrations of L-LA alter the release of immune modulators by VK2, End and Ect cells by incubating cells in transwells with L-LA for 24 h at 37° C. in serum free keratinocyte medium and harvesting supernatants (from the apical chamber) for release of immune modulators.
as §1, §2, §3

VK2 cells = assay: as above; assay type: cell-based, human
Description: as §4, §1, §2, §3

Ect cells [6] = assay: as above; assay type: cell-based, human; settings: 0.3%
[7] = system: primary ectocervical cells; assay: Cytokine/chemokine production by primary cells in transwells; assay type: cell-based, human; settings: 0.3% LA, PIC or both
Excerpt: Culture of Human Primary Ectocervical Cells in Transwells. To further qualify the data in Example 9, we repeated the experiment with primary ectocervical cells.

[8] = system: Ect1 E6/E7 ectocervical epithelial cell line; assay: Cyto/chemokine analysis (Procartaplex, Luminex) after 1 hour treatment; assay type: cell-based, human; settings: Ect; for IL-1RA production from cells stimulated with PIC, acid alone / PIC-induced cytokine production, acid alone: 0.03% benzoic acid or 0.15% citric acid; for PIC-induced cytokine production, acid alone: compared with low pH alone (HCl); for LA-induced production of IL-1RA in the presence of the acid: 0.3% LA with 0.03% benzoic acid or 0.15% citric acid; for IL-1RA production, no TLR agonist / IL-6 basal production, no TLR agonist: 1 hour treatment at pH 3.9 (acids at various concentrations, gels diluted to about 0.3% LA), supernatant after 18 hours; for other immune mediators (IL-8, MIP3α, TNF, IL-1B, RANTES), no TLR agonist: 1 hour treatment at pH 3.9, not shown; for LA inhibition of PIC-induced IL-8, IL-6 and TNF in the presence of the acid: PIC and 0.3% LA with 0.03% benzoic acid or 0.15% citric acid
[9] = system: human female reproductive tissue; settings: low pH; cited from earlier work
[10] = system: Ect1 E6/E7 ectocervical epithelial cell line; assay: Viability (MTS) 18 hours after 1 hour treatment; settings: range of concentrations, pH 3.9, 1 hour incubation, read 18 hours later
Description: The human ectocervical epithelial cell line Ect1 E6/E7 was utilized for these experiments. Cells were cultured and treated in serum free keratinocyte media (SFKM) containing supplements as per ATCC recommendations. Cells were seeded in 6 mm transwell inserts at a density of 100,000 cells per well, and cultured for 7 days prior to treatment. […] Cytokine-containing supernatants were collected and stored at −80° C. for future analysis and cell viability assessed via MTS assay as per manufacturer's recommendations.
NOTE: The pH of all treatment media containing gels/acids was adjusted to pH 3.9 (to match that of 0.3% LA) prior to treatment. This was performed to ensure that a similar concentration of protonated LA, the active form of LA, was compared. A pH control (media adjusted to pH 3.9 with HCl) was included to determine the effect of low pH alone.
Due to the poor buffering capacity of HCl, treatments containing HCl were refreshed every 20 min during the 1 hour treatment time to ensure the low pH of the treatment media was maintained.

[11] = 0.3% acid (pH 3.9) or low pH alone (pH 3.9 with HCl)
[12] = 0.3% in apical medium, pH 3.9, 24 h
[13] = 0.3%, pH 3.9, absence or presence of PIC
[14] = added to the apical medium in the transwell system, 24 hr
[15] = PIC 1 hour with 0.3% LA or gels diluted to about 0.3% LA, pH 3.9

C[C@@H](O)C(=O)O [D-LA, D-(−)-lactic acid]
IL-6 secretion induced by TLR3 agonist PIC (Ect cells [1]): reduce secretion
IL-8 secretion induced by TLR3 agonist PIC (Ect cells [1]): reduce secretion
IL-1RA production (Ect cells [1]): increase IL-1RA production

Cl [HCl, Hydrochloric acid, reference compound]
IL-6 secretion induced by TLR3 agonist PIC (Ect cells [1]): neither neutralised L-LA nor HCl acidified media had any significant effect
IL-8 secretion induced by TLR3 agonist PIC (Ect cells [1]): neither neutralised L-LA nor HCl acidified media had any significant effect
IL-1RA production (Ect cells [1]): neither neutralised L-LA nor HCl acidified media had any significant effect
effect on cell viability [2, 11]: non-toxic
effect on cell viability [3, 11]: non-toxic
effect on cell viability [4, 11]: non-toxic

C[C@H](O)C(=O)O [L-LA, L-(+)-lactic acid]
cytotoxicity in standard plate format [5]: highly cytotoxic
IL-6 secretion induced by TLR3 agonist PIC (End cells; [12]): reduces secretion
IL-8 secretion induced by TLR3 agonist PIC (End cells; [12]): reduces secretion
IL-1RA production with Pam3Ck (TLR2) and lipopolysaccharide (TLR4) (End cells; 0.3%, pH 3.9): same result
IL-1RA production (End cells; [13]): induces IL-1RA production
IL-6 secretion induced by TLR3 agonist PIC (VK2 cells; [12]): reduces secretion
IL-8 secretion induced by TLR3 agonist PIC (VK2 cells; [12]): reduces secretion
IL-1RA production with Pam3Ck (TLR2) and lipopolysaccharide (TLR4) (VK2 cells; 0.3%, pH 3.9): same result
IL-1RA production (VK2 cells; [13]): induces IL-1RA production
IL-6 secretion induced by TLR3 agonist PIC (Ect cells [1]): reduce secretion; also recorded: reduced the production
IL-8 secretion induced by TLR3 agonist PIC (Ect cells [1]): reduce secretion; also recorded: reduced the production
IL-1RA production (Ect cells [1]): induces IL-1RA production; also recorded: increase IL-1RA production; also recorded: significant increase
decreasing levels of proinflammatory cytokines (IL-6, IL-8) induced by PIC, neutralised (Ect cells [1]; 0.3% at pH 7.4): neither neutralised L-LA nor HCl acidified media had any significant effect
increasing the production of IL-1RA, neutralised (Ect cells [1]; 0.3% at pH 7.4): neither neutralised L-LA nor HCl acidified media had any significant effect
treatment time sufficient for the effects on IL-1RA, IL-6, IL-8, TNFα, RANTES and MIP3α (Ect cells [1]; 0.3% with or without PIC for 0.5, 1 or 18 hrs, cytokines measured at 18 hrs): 30 min
IL-1RA production with Pam3Ck (TLR2) and lipopolysaccharide (TLR4) (Ect cells [1]; 0.3%, pH 3.9): same result
L-lactic acid concentrations tolerated [2, 14]: up to 0.4%
L-lactic acid concentrations tolerated [3, 14]: up to 0.4%
L-lactic acid concentrations tolerated [4, 14]: up to 0.4%
MIP3α production induced by TLR agonist (PIC) (Ect cells [6]): reduced the production
RANTES production induced by TLR agonist (PIC) (Ect cells [6]): reduced the production
TNFα production induced by TLR agonist (PIC) (Ect cells [6]): reduced the production

CC(O)C(=O)O (centres unmarked) [LA, lactic acid]
production of IL-1RA, IL-6, IL-8, TNFα, RANTES and MIP3α [7]: trend similar to that of LA treatment of cells lines
IL-1β production, no TLR agonist ([8]; 1 hour treatment, levels below the limit of detection (data not shown)): small increase
PIC-induced production of IL-6 [8, 15]: inhibits
PIC-induced production of IL-8 [8, 15]: inhibits
PIC-induced production of TNF [8, 15]: inhibits
inflammatory activity on human female reproductive tissue [9]: pro-inflammatory

O=C(O)c1ccccc1 [benzoic acid, Benzoic acid]
IL-1RA production from cells stimulated with PIC, acid alone [8]: neither citric nor benzoic acid altered
PIC-induced cytokine production, acid alone [8]: did not appear to alter
LA-induced production of IL-1RA in the presence of the acid [8]: largely preserved
IL-1RA production, no TLR agonist [8]: Neither acid was associated with an altered expression
IL-6 basal production, no TLR agonist [8]: Neither acid was associated with an altered expression
other immune mediators (IL-8, MIP3α, TNF, IL-1B, RANTES), no TLR agonist [8]: similarly unaltered
LA inhibition of PIC-induced IL-8, IL-6 and TNF in the presence of the acid [8]: persists
viability of Ect cells, acid excipients [10]: Neither benzoic nor citric acid had any significant effect

O=C(O)CC(O)(CC(=O)O)C(=O)O [citric acid, Citric acid]
IL-1RA production from cells stimulated with PIC, acid alone [8]: neither citric nor benzoic acid altered
PIC-induced cytokine production, acid alone [8]: did not appear to alter
IL-1RA production, acid in combination with PIC and LA ([8]; 0.15% citric acid, compared to cells stimulated with LA and PIC): reduced production
LA-induced production of IL-1RA in the presence of the acid [8]: largely preserved
IL-1RA production, no TLR agonist [8]: Neither acid was associated with an altered expression
IL-6 basal production, no TLR agonist [8]: Neither acid was associated with an altered expression
other immune mediators (IL-8, MIP3α, TNF, IL-1B, RANTES), no TLR agonist [8]: similarly unaltered
LA inhibition of PIC-induced IL-8, IL-6 and TNF in the presence of the acid [8]: persists
